Laboratory results: patent US9096589B2, “Heteroaromatic phenylimidazole derivatives as PDE10A enzyme inhibitors” (H. Lundbeck A/S, priority 2009, dated 2015)

What follows are compounds tested against PDE10A (Homo sapiens (Human), UniProt Q9Y233) (assay: PDE10A inhibition assay).
Type: biochemical
Method: Active PDE10A enzyme is prepared in a number of ways for use in PDE assays (Loughney, K. et al. Gene 1999, 234, 109-117; Fujishige, K. et al. Eur J. Biochem. 1999, 266, 1118-1127 and Soderling, S. et al. Proc. Natl. Acad. Sci. 1999, 96, 7071-7076). PDE10A can be expressed as full-length proteins or as truncated proteins, as long as they express the catalytic domain. PDE10A can be prepared in different cell types, for example insect cells or E. coli. An example of a method to obtain catalytically active PDE10A is as follows: The catalytic domain of human PDE10A (amino acids 440-779 from the sequence with accession number NP 006652) is amplified from total human brain total RNA by standard RT-PCR and is cloned into the BamH1 and Xho1 sites of the pET28a vector (Novagen). Expression in coli is performed according to standard protocols. Briefly, the expression plasmids are transformed into the BL21(DE3) E. coli strain, and 50 mL cultures inoculated with the cells allowed to grow to an OD600 of 0.4-0.6 before protein expression is induced with 0.5 mM IPTG. Following induction, the cells are incubated overnight at room temperature, after which the cells are collected by centrifugation. Cells expressing PDE10A are resuspended in 12 mL (50 mM TRIS-HCl-pH8.0, 1 mM MgCl2 and protease inhibitors). The cells are lysed by sonication, and after all cells are lysed, TritonX100 is added according to Novagen protocols.
A PDE10A assay may for example, be performed as follows: The assay is performed in 60 uL samples containing a fixed amount of the relevant PDE enzyme (sufficient to convert 20-25% of the cyclic nucleotide substrate); a buffer (50 mM HEPES7.6; 10 mM MgCl2; 0.02% Tween20), 0.1 mg/ml BSA, 225 pCi of ^3H-labelled cyclic nucleotide substrate, tritium labeled cAMP to a final concentration of 5 nM and varying amounts of inhibitors. Reactions are initiated by addition of the cyclic nucleotide substrate, and reactions are allowed to proceed for one hr at room temperature before being terminated through mixing with 15 uL 8 mg/mL yttrium silicate SPA beads (Amersham). The beads are allowed to settle for one hr in the dark before the plates are counted in a Wallac 1450 Microbeta counter. The measured signal can be converted to activity relative to an uninhibited control (100%) and IC50 values can be calculated using the Xlfit extension to EXCEL.

Chain of PDE10A (Q9Y233 716-1055): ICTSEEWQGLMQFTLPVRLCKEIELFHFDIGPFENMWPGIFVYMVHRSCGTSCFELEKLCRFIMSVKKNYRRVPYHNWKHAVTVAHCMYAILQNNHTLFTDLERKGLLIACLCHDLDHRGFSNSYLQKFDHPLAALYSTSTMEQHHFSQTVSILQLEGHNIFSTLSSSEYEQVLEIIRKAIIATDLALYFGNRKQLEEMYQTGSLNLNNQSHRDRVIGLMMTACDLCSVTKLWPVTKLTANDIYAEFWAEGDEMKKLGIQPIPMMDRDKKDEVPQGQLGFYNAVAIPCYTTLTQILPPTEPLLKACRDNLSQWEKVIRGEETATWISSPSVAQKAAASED

| SMILES | IC50 |
| --- | --- |
| COCC(O)Cn1cc(-c2cccs2)nc1CCc1nc2cccc(C)n2n1 (centres unmarked) [1-Methoxy-3-{2-[2-(5-methyl-[1,2,4]triazolo[1,5-a]pyridin-2-yl)-ethyl]-4-thiophen-2-yl-imidazol-1-yl}-propan-2-ol] | 7.5 nM |
| COCC(O)Cn1cc(-c2cccs2)nc1CCc1nc2c(C)cccn2n1 (centres unmarked) [1-Methoxy-3-{2-[2-(8-methyl-[1,2,4]triazolo[1,5-a]pyridin-2-yl)-ethyl]-4-thiophen-2-yl-imidazol-1-yl}-propan-2-ol] | 8.4 nM |
| Cc1cc(C)n2cc(CCc3nc(-c4cccs4)cn3CC(O)CF)nc2n1 (centres unmarked) [1-{2-[2-(5,7-Dimethyl-imidazo[1,2-a]pyrimidin-2-yl)-ethyl]-4-thiophen-2-yl-imidazol-1-yl}-3-fluoro-propan-2-ol] | 14 nM |
| COCC(O)Cn1cc(-c2cccs2)nc1CCc1cn2c(C)cc(C)nc2n1 (centres unmarked) [1-{2-[2-(5,7-Dimethyl-imidazo[1,2-a]pyrimidin-2-yl)-ethyl]-4-thiophen-2-yl-imidazol-1-yl}-3-methoxy-propan-2-ol] | 7.9 nM |
| Cc1cc(C)n2cc(CCc3nc(-c4cccs4)cn3CC(C)C)nc2n1 [2-[2-(1-Isobutyl-4-thiophen-2-yl-1H-imidazol-2-yl)-ethyl]-5,7-dimethyl-imidazo[1,2-a]pyrimidine] | 12 nM |
| Cc1ncc(C)n2nc(CCc3nc(-c4ccoc4)cn3C)nc12 [2-[2-(4-Furan-3-yl-1-methyl-1H-imidazol-2-yl)-ethyl]-5,8-dimethyl-[1,2,4]triazolo[1,5-a]pyrazine] | 2.9 nM |
| Cc1cc(C)n2cc(/C=C/c3nc(-c4ccco4)cn3C)nc2n1 [2-[(E)-2-(4-Furan-2-yl-1-methyl-1H-imidazol-2-yl)-vinyl]-5,7-dimethyl-imidazo[1,2-a]pyrimidine] | 25 nM |
| Cc1cc(C)n2cc(/C=C/c3nc(-c4ccoc4)cn3C)nc2n1 [2-[(E)-2-(4-Furan-3-yl-1-methyl-1H-imidazol-2-yl)-vinyl]-5,7-dimethyl-imidazo[1,2-a]pyrimidine] | 140 nM |
| COc1cccn2nc(/C=C/c3nc(-c4ccoc4)cn3C)nc12 [2-[(E)-2-(4-Furan-3-yl-1-methyl-1H-imidazol-2-yl)-vinyl]-8-methoxy-[1,2,4]triazolo[1,5-a]pyridine] | 47 nM |
| COCCn1cc(-c2cncs2)nc1CCc1cn2c(C)cc(C)nc2n1 [2-{2-[1-(2-Methoxy-ethyl)-4-thiazol-5-yl-1H-imidazol-2-yl]-ethyl}-5,7-dimethyl-imidazo[1,2-a]pyrimidine] | 210 nM |
| COCCn1cc(-c2cccs2)nc1CCc1cn2c(C)cc(C)nc2n1 [2-{2-[1-(2-Methoxy-ethyl)-4-thiophen-2-yl-1H-imidazol-2-yl]-ethyl}-5,7-dimethyl-imidazo[1,2-a]pyrimidine] | 130 nM |
| Cc1cccc2nc(/C=C/c3nc(-c4ccco4)cn3COCC[Si](C)(C)C)nn12 [2-{(E)-2-[4-Furan-2-yl-1-(2-trimethylsilanyl-ethoxymethyl)-1H-imidazol-2-yl]-vinyl}-5-methyl-[1,2,4]triazolo[1,5-a]pyridine] | 46 nM |
| Cc1cccc2nc(CCc3nc(-c4cccs4)cn3C[C@@H](O)CN(C)CCC#N)nn12 [3-[((S)-2-Hydroxy-3-{2-[2-(5-methyl-[1,2,4]triazolo[1,5-a]pyridin-2-yl)-ethyl]-4-thiophen-2-yl-imidazol-1-yl}-propyl)-methyl-amino]-propionitrile] | 10000 nM |
| Cc1cc(C)n2nc(CCc3nc(-c4cccnc4)cn3C)nc2n1 [5,7-Dimethyl-2-[2-(1-methyl-4-pyridin-3-yl-1H-imidazol-2-yl)-ethyl]-[1,2,4]triazolo[1,5-a]pyrimidine] | 44 nM |
| Cc1cc(C)n2cc(CCc3nc(-c4cccs4)cn3C)nc2n1 [5,7-Dimethyl-2-[2-(1-methyl-4-thiophen-2-yl-1H-imidazol-2-yl)-ethyl]-imidazo[1,2-a]pyrimidine] | 45 nM |
| CCCn1cc(-c2cccs2)nc1CCc1cn2c(C)cc(C)nc2n1 [5,7-Dimethyl-2-[2-(1-propyl-4-thiophen-2-yl-1H-imidazol-2-yl)-ethyl]-imidazo[1,2-a]pyrimidine] | 3.4 nM |
| Cc1cc(C)n2cc(/C=C/c3nc(-c4cccnc4)cn3C)nc2n1 [5,7-Dimethyl-2-[(E)-2-(1-methyl-4-pyridin-3-yl-1H-imidazol-2-yl)-vinyl]-imidazo[1,2-a]pyrimidine] | 220 nM |
| Cc1cc(C)n2cc(/C=C/c3nc(-c4cncs4)cn3C)nc2n1 [5,7-Dimethyl-2-[(E)-2-(1-methyl-4-thiazol-5-yl-1H-imidazol-2-yl)-vinyl]-imidazo[1,2-a]pyrimidine] | 97 nM |

Continued by falling IC50, values first:

| IC50 | SMILES |
| --- | --- |
| 340 nM | Cc1cc(C)n2cc(/C=C/c3nc(-c4cnccn4)cn3C)nc2n1 [5,7-Dimethyl-2-[(E)-2-(1-methyl-4-pyrazin-2-yl-1H-imidazol-2-yl)-vinyl]-imidazo[1,2-a]pyrimidine] |
| 180 nM | Cc1cc(C)n2cc(/C=C/c3nc(-c4cscn4)cn3C)nc2n1 [5,7-Dimethyl-2-[(E)-2-(1-methyl-4-thiazol-4-yl-1H-imidazol-2-yl)-vinyl]-imidazo[1,2-a]pyrimidine] |
| 160 nM | Cc1cc(C)n2cc(CCc3nc(-c4cccs4)cn3C(C)C)nc2n1 [2-[2-(1-Isopropyl-4-thiophen-2-yl-1H-imidazol-2-yl)-ethyl]-5,7-dimethyl-imidazo[1,2-a]pyrimidine] |
| 58 nM | COCC(O)Cn1cc(-c2cncs2)nc1CCc1cn2c(C)cc(C)nc2n1 (centres unmarked) [1-{2-[2-(5,7-Dimethyl-imidazo[1,2-a]pyrimidin-2-yl)-ethyl]-4-thiazol-5-yl-imidazol-1-yl}-3-methoxy-propan-2-ol] |
| 46 nM | Cc1cc(C)n2cc(CCc3nc(-c4cccs4)cn3C3CCCC3)nc2n1 [2-[2-(1-Cyclopentyl-4-thiophen-2-yl-1H-imidazol-2-yl)-ethyl]-5,7-dimethyl-imidazo[1,2-a]pyrimidine] |
| 33 nM | Cc1cc(C)n2cc(CCc3nc(-c4ccsc4)cn3C)nc2n1 [5,7-Dimethyl-2-[2-(1-methyl-4-thiophen-3-yl-1H-imidazol-2-yl)-ethyl]-imidazo[1,2-a]pyrimidine] |
| 8.8 nM | Cc1cc(C)n2cc(/C=C/c3nc(-c4cccs4)cn3C)nc2n1 [5,7-Dimethyl-2-[(E)-2-(1-methyl-4-thiophen-2-yl-1H-imidazol-2-yl)-vinyl]-imidazo[1,2-a]pyrimidine] |
| 5.7 nM | Cc1cc(C)n2cc(CCc3nc(-c4cncs4)cn3CC(O)c3ccc(Cl)cc3)nc2n1 (centres unmarked) [1-(4-Chloro-phenyl)-2-{2-[2-(5,7-dimethyl-imidazo[1,2-a]pyrimidin-2-yl)-ethyl]-4-thiazol-5-yl-imidazol-1-yl}-ethanol] |
| 4.2 nM | Cc1cc(C)n2nc(CCc3nc(-c4cccs4)cn3C)nc2n1 [5,7-Dimethyl-2-[2-(1-methyl-4-thiophen-2-yl-1H-imidazol-2-yl)-ethyl]-[1,2,4]triazolo[1,5-a]pyrimidine] |
| 4 nM | COc1ccc(C)n2nc(CCc3nc(-c4ccoc4)cn3C)nc12 [2-[2-(4-Furan-3-yl-1-methyl-1H-imidazol-2-yl)-ethyl]-8-methoxy-5-methyl-[1,2,4]triazolo[1,5-a]pyridine] |
| 1.7 nM | COc1ccc(C)n2nc(CCc3nc(-c4cccs4)cn3CCCC#N)nc12 [4-{2-[2-(8-Methoxy-5-methyl-[1,2,4]triazolo[1,5-a]pyridin-2-yl)-ethyl]-4-thiophen-2-yl-imidazol-1-yl}-butyronitrile] |
